Source: US20150342194A1, “NON-PHYTOTOXIC COMPOSITE POLYMER FILM BARRIER AS A REPELLENT FOR CONTROLLING INFECTION” (priority 2014, published 2015)

Columns and labels:
[1] = tested on: Asian Citrus Psyllid (ACP, Diaphorina citri); settings: field trials, literature [7-9]; cited from earlier work
[2] = tested on: Asian Citrus Psyllid (ACP, Diaphorina citri); settings: chemical repellants, literature [11-13]; cited from earlier work
[3] = tested on: Vinca sp; assay: Phytotoxicity (plant tissue injury) testing on Vinca sp.; assay type: in vivo; design: key: −: No plant tissue damage; +: Minimal; ++: moderate; +++: severe plant tissue damage
Protocol: FIGS. 2A to 2C illustrate phytotoxicity (plant tissue injury) results. FIG. 2A illustrates untreated, FIG. 2B illustrates OSCF nanoparticle, and FIG. 2C illustrates OSCF nanogel film materials, sprayed on Vinca. sp. Under green-house conditions, approximately 5 mL of synthesized formula was sprayed on plants at 7:30 AM on the test day. After 72 hrs, all treatments were non-phytotoxic (−) to plants.
FIG. 1 illustrates digital photographs of some representative citrus leaf surfaces before and after rigorous spray washing with water (simulating over 6 inches of rainfall). Phytotoxicity studies were carried out using Vinca sp. (an ornamental plant, highly susceptible to phytotoxicity; purchased from Home Depot).
(§1) Tables 2 and 3, Example 2, illustrate phytotoxicity testing of embodiments of the present disclosure.

[4] = tested on: Citrus (Persian Lime); assay: Phytotoxicity testing on Citrus (Persian Lime); assay type: in vivo; design: key: −: No plant tissue damage; +: Minimal; ++: moderate; +++: severe plant tissue damage
Text: as §1

[5] = tested on: Tomato sp; assay: Phytotoxicity testing on Tomato sp; assay type: in vivo; design: key: −: No plant tissue damage; +: Minimal; ++: moderate; +++: severe plant tissue damage
Text: as §1

## CN/C(=N\[N+](=O)[O-])NCc1cnc(Cl)s1 [clothianidin]
[1]
  Controlling ACP populations: effective in controlling ACP populations

## CN1COCN(Cc2cnc(Cl)s2)/C1=N\[N+](=O)[O-] [thiamethoxam]
[1]
  Controlling ACP populations: effective in controlling ACP populations

## CSSC [dimethyldisulfide (DMDS), dimethyldisulfide]
[2]
  ACP repellant properties: moderate ACP repellant properties

## O=[N+]([O-])NC1=NCCN1Cc1ccc(Cl)nc1 [imidacloprid]
[1]
  Controlling ACP populations: effective in controlling ACP populations

## CC1(C)C(C(=O)OC(C#N)c2cccc(Oc3ccccc3)c2)C1(C)C (stereo not drawn) [fenpropathrin]
[1]
  Controlling ACP populations: effective in controlling ACP populations

## O=S(=O)([O-])[O-].[Cu+2] [CuSO4]
[3]; 24 hr, Table 2
  Phytotoxicity, plant tissue damage: +
[3]; 24 hr, Table 3
  Phytotoxicity, plant tissue damage: +
[3]; 48 hr, Table 2
  Phytotoxicity, plant tissue damage: ++
[3]; 48 hr, Table 3
  Phytotoxicity, plant tissue damage: ++
[3]; 72 hr, Table 2
  Phytotoxicity, plant tissue damage: +++
[3]; 72 hr, Table 3
  Phytotoxicity, plant tissue damage: +++
[4]; 24 hr
  Phytotoxicity, plant tissue damage: +
[4]; 48 hr
  Phytotoxicity, plant tissue damage: ++
[4]; 72 hr
  Phytotoxicity, plant tissue damage: +++
[5]; 24 hr
  Phytotoxicity, plant tissue damage: +
[5]; 48 hr
  Phytotoxicity, plant tissue damage: ++
[5]; 72 hr
  Phytotoxicity, plant tissue damage: +++

## CCOP(=S)(OCC)Oc1nc(Cl)c(Cl)cc1Cl [chlorpyrifos]
[1]
  Controlling ACP populations: effective in controlling ACP populations
